In US10660903B2, “Orodispersible dosage unit containing an estetrol component” (ESTETRA SPRL, priority 2015, dated 2020):

Assays:
[1] = biological target: T1, sex hormone binding globulin (SHBG) (Homo sapiens, UniProt P04278); details: cited from earlier work
T1 sequence (P04278 30-402): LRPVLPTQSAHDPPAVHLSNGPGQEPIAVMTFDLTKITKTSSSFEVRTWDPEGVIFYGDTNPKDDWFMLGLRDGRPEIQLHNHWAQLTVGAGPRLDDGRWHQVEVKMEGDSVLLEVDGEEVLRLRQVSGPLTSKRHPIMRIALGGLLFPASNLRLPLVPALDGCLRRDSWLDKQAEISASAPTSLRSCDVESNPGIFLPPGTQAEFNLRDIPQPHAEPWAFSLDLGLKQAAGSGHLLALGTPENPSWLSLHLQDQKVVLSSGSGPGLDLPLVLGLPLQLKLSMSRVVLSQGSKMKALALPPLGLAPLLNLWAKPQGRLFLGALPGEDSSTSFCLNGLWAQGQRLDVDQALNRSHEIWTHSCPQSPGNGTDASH

[2] = system: estrogen receptors; details: in vitro; cited from earlier work
[3] = system: human breast cancer cells; details: in the presence of 17β-estradiol; cited from earlier work
[4] = humans; cited from earlier work
[5] = system: DMBA mammary tumour; details: extent and dose level similar to tamoxifen and to ovariectomy; cited from earlier work
[6] = Randomized, open-label, two-period, cross-over pharmacokinetic study, sublingual versus oral estetrol; assay type: in vivo, human; details: 10 mg estetrol; sublingual vs oral; healthy female volunteers
Method: A randomized, open-label, two-period, cross-over, pharmacokinetic study is conducted to compare sublingual bioavailability of 10 mg estetrol administered in one 100 mg tablet with oral availability of estetrol contained in a 83 mg tablet containing 10 mg estetrol. These tablets are administered sublingually and orally to healthy female volunteers under fasting conditions.
Ten healthy female subjects are selected on the basis of the following criteria: age of 45-65 years (inclusive), nonsmokers or past smokers (at least 6 months before dosing), body-mass index (BMI)=18.5 to 30 kg/m^2 (inclusive at the time of the screening).
At the start of the first and the second period of the study, between 07:00 am and 07:28 am, 5 subjects receive a single dose of the sublingual formulation of estetrol by administering one estetrol tablet (tablet weight 100 mg; 10 mg estetrol) and 5 subjects receive a single oral dose of the oral estetrol formulation by administering one estetrol tablet (tablet weight 83 mg; 10 mg estetrol), ingested together with 200 ml water. […]
The estetrol concentration in the collected blood samples is determined by means of HPLC/MS/MS. The concentrations of glucuronided estetrol (D-ring) in the urine samples is also determined with the help of HPLC/MS/MS.

[7] = system: production of SHBG; details: in vitro; cited from earlier work
[8] = Particle size distribution by laser diffraction (Malvern Mastersizer Microplus); assay type: physicochemical; details: milled estetrol used in the tablets
Method: The particles size distribution of the estetrol particles, and of other particulate materials used in the present process, may suitably be determined by means of laser diffraction. The particle size distribution of the estetrol particles within the solid dosage unit can suitably be determined using spectroscopic techniques, e.g. Raman mapping.
Particle size distribution of estetrol monohydrate is performed using a MALVERN MASTERS IZER MICROPLUS laser particle size analyzer.
• Weigh 1 g of estetrol monohydrate and 1 g of sorbitan trioleate into a flask. • Add 1 litre of n-hexane and mix for at least 1 hour at room temperature • Filter through a 0.45 μm filter.
• Put 100 mg of sample in a 25 mL beaker. • Add some drops of dispersion medium. • Mix carefully with a glass rod to suspend well the powder. • Add 10 mL of dispersion medium. • Perform the analysis with the sample dispersion unit's speed at 3000-3500 rpm.
Particle size measurements are performed three times using the same dispersion. The final result is obtained by averaging the results of the three determinations.

[9] = system: vagina, uterus, body weight, bone mass, bone strength, hot flushes, ovulation; details: rat models; dose-dependent; cited from earlier work

C[C@]12CC[C@@H]3c4ccc(O)cc4CC[C@H]3[C@@H]1[C@@H](O)[C@@H](O)[C@@H]2O [estetrol, 1,3,5 (10)-estratrien-3,15α,16α,17β-tetrol]
binding to SHBG [1]: does not bind | binding to the estrogen receptors, selectivity [2]: binds highly selective to the estrogen receptors with preference for the ERa form of the receptor | anti-estrogenic effect [3]: anti-estrogenic effect | oral bioavailability [4]: high and dose-proportional | terminal elimination half-life [4]: about 28 hours | tumour development [5]: prevented tumour development | impact on a liver function parameter, sublingual versus oral estetrol [6]: less impact | stimulation of the production of SHBG [7]: does not stimulate | D (v;0.5) (volume median diameter) [8]: ^1 D (v;0.5) = 15 μm | estrogenic effects on vagina, uterus, body weight, bone mass, bone strength, hot flushes and ovulation [9]: exhibited estrogenic effects
